This note sets out measurements from ChEMBL document CHEMBL1201862, “PubChem BioAssay data set” (2004).

Holding throughout (test): inhibition of tumour cell growth, NCI panel, 48 h
Experiment [1] deals with UACC-62.
The test system of experiment [2] is ACHN.
Experiment [3] concerns SW-620.
Experiment [4] deals with DLD-1.
The test system of experiment [5] is M14.
Experiment [6] has as its system EKVX.
The subject of experiment [7] is TK-10.
Experiment [8] has as its system CAKI-1.
In experiment [9] the test system is SF-295.
The subject of experiment [10] is SK-MEL-5.
Experiment [11] concerns HCT-15.
Experiment [12] deals with HOP-62.
For experiment [13], the system named is KM12.
Experiment [14] relates to MDA-MB-231.
Experiment [15] deals with NCI/ADR-RES.
Experiment [16] deals with PC-3.
In experiment [17] the test system is MDA-MB-435.
Experiment [18] deals with HCC 2998.
Experiment [19] deals with BT-549.
Experiment [20] relates to A498.

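Step 1: Grow cells in 96-well plates. Step 2: Expose to compound for 48 hours at 5 concentrations. Step 3: Interpolate endpoints linearly; if unreached, use highest concentration. Here, GI50 denotes the concentration required for 50% inhibition of growth.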 The source made the active and inactive calls. No stated cut-off is given here; in the data, active = GI50 up to about 1.1 µM and inactive = higher.

Turning to `COC[C@@H](/N=C/N1CCc2cc(OC)c(OC)cc2C1)C(C)(C)C`, the GI50 in experiment [1], in [2], in experiment [3], in [4], in [5] and in [6] was > 100 µM (inactive) throughout. In addition, the GI50 was > 100 µM (inactive) in experiment [7]; > 100 µM (inactive) in experiment [8]; > 100 µM (inactive) in [9]; > 100 µM (inactive) in [10]; over 100 µM in experiment [11]; > 100 µM (inactive) in experiment [12]. For the same molecule, the GI50 in [13] is > 100 µM (inactive).

On to `Cc1cc(O)nc(NNC(C#N)c2ccccc2O)n1` (stereo not given), for which the GI50 in experiment [1] was 21.7 µM (inactive); in experiment [2] it was 16.6 µM (inactive); in experiment [3], 44.6 µM (inactive); in [4] it was 18.4 µM (inactive); in [7] it was 61 µM (inactive); in [8], 30.8 µM (inactive). The GI50 in [9] is 38.4 µM (inactive); in [10] it was 19.9 µM (inactive); in [11], 11.9 µM; in experiment [12] it was 31.3 µM (inactive); in experiment [13] it was 35.6 µM (inactive).

For the molecule `COC12OC3CC4(C)C(=CC3OC(OC(C)C1O)C2O)CCC1C4CCC2(C)C(c3ccc(=O)oc3)CCC12O` (stereo not given), the GI50 in [14] is 0.00281 µM (active); in [1], 0.00233 µM (active); in experiment [2], 0.00181 µM (active); in [3], 0.00178 µM (active); in experiment [15], 0.00151 µM (active); in experiment [16], 0.00142 µM (active). Also, the GI50 in [17] is 0.00216 µM (active); in [5], 0.0023 µM (active); in experiment [6] it was < 0.001 µM (active); in experiment [7], 0.00122 µM (active); in experiment [18] it was 0.00338 µM (active); in [8], 0.00147 µM (active). In addition, the GI50 in experiment [9] was 0.00176 µM (active); in experiment [10], < 0.001 µM (active); in experiment [11] it was 0.00216 µM; in experiment [12], 0.00137 µM (active); in experiment [19], 0.00143 µM (active); in experiment [13], 0.00247 µM (active). For the same molecule, in experiment [20], the GI50 was 0.00309 µM (active).

As to `CC(C)c1ccc(O)c(=O)c(O)c1.CC(C)c1ccc(O)c(=O)cc1.CC(C)c1cccc(=O)c(O)c1.CC(C)c1ccccc(=O)c1O`, the GI50 was 1.79 µM (inactive) in experiment [14]; 0.787 µM (active) in [1]; 0.47 µM (active) in experiment [2]; 0.697 µM (active) in experiment [3]; 0.42 µM (active) in experiment [15]; 0.416 µM (active) in [16]. For the same molecule, the GI50 in [17] is 2.1 µM (inactive); in experiment [5] it was 1.8 µM (inactive); in experiment [6] it was 6.15 µM (inactive); in experiment [7], 0.459 µM (active); in experiment [18], 0.304 µM (active); in experiment [8], 1.36 µM (inactive). The GI50 was 1.23 µM (inactive) in [9]; 1.22 µM (inactive) in [10]; 0.198 µM in [11]; 1.24 µM (inactive) in experiment [12]; 4.8 µM (inactive) in [19]; 2.87 µM (inactive) in experiment [13]. For the same molecule, the GI50 in experiment [20] is 2.06 µM (inactive).

For the molecule `Cn1c(=O)c2nc(/N=N/Nc3nncs3)[nH]c2n(C)c1=O`, the GI50 in [14], in experiment [1], in experiment [2], in experiment [3], in experiment [15] and in experiment [16] was > 100 µM (inactive) throughout. The GI50 in experiment [17], in experiment [5], in experiment [6], in experiment [7], in experiment [18] and in experiment [8] was > 100 µM (inactive) throughout. Moreover, the GI50 is > 100 µM (inactive) in experiment [9]; > 100 µM (inactive) in [10]; over 100 µM in experiment [11]; > 100 µM (inactive) in experiment [12]; > 100 µM (inactive) in experiment [19]; > 100 µM (inactive) in experiment [13]. Further, the GI50 in [20] is > 100 µM (inactive).

As to `N#CC1=C(N2CCOCC2)CCC1`, the GI50 in experiment [14], in experiment [1], in [2], in experiment [3], in experiment [15] and in [16] was > 100 µM (inactive) in each case. Further, the GI50 in experiment [17], in experiment [5], in experiment [6], in [7], in experiment [18] and in experiment [8] was > 100 µM (inactive) each time. Besides, the GI50 in experiment [9] was > 100 µM (inactive); in experiment [10] it was > 100 µM (inactive); in experiment [11], over 100 µM; in experiment [12] it was > 100 µM (inactive); in experiment [19], > 100 µM (inactive); in experiment [13], > 100 µM (inactive). In [20], the GI50 was > 100 µM (inactive).

`CN(C)c1ccc(/C=C(\NC(=O)c2ccccc2)C(=O)NC(CC(=O)O)C(=O)O)cc1` (stereo not given): the GI50 was > 100 µM (inactive) in [14]; 82 µM (inactive) in [1]; > 100 µM (inactive) in experiment [2]; > 100 µM (inactive) in experiment [3]; 43.7 µM (inactive) in experiment [15]; > 100 µM (inactive) in experiment [16]. The GI50 in experiment [17], in experiment [5], in experiment [6], in experiment [7], in [18] and in experiment [8] was > 100 µM (inactive) throughout. The GI50 is > 100 µM (inactive) in experiment [9]; 94.6 µM (inactive) in [10]; over 100 µM in experiment [11]; 22.9 µM (inactive) in experiment [12]; > 100 µM (inactive) in experiment [19]; 39.4 µM (inactive) in experiment [13]. The GI50 in experiment [20] was > 100 µM (inactive).

As to `COc1ccc(/C=C2\C[C@H]3[C@@H]4CCC5=C[C@@H](N6CCCC6)CC[C@]5(C)[C@H]4CC[C@]3(C)[C@H]2O)cc1`, the GI50 in experiment [14] was 1.96 µM (inactive); in experiment [1] it was 1.78 µM (inactive); in [2] it was 3.29 µM (inactive); in [3] it was 2.3 µM (inactive); in experiment [15], 4.39 µM (inactive); in experiment [16], 2.25 µM (inactive). In addition, the GI50 is 1.93 µM (inactive) in experiment [17]; 1.51 µM (inactive) in [5]; 3.81 µM (inactive) in [6]; 2.43 µM (inactive) in experiment [7]; 1.31 µM (inactive) in [18]; 3.52 µM (inactive) in [8]. Also, the GI50 in experiment [9] is 2.3 µM (inactive); in experiment [10] it was 1.55 µM (inactive); in [11], 1.4 µM; in experiment [12], 1.66 µM (inactive); in experiment [19], 5.85 µM (inactive); in experiment [13], 2.34 µM (inactive). Besides, the GI50 in experiment [20] was 1.61 µM (inactive).

Take `C=C(CC)C(=O)c1ccc(OCC(=O)O)c(Cl)c1Cl` [ETHACRYNIC ACID]: the GI50 was 19.6 µM (inactive) in experiment [14]; 15.2 µM (inactive) in [1]; 26.8 µM (inactive) in [2]; 19.3 µM (inactive) in [3]; 26.7 µM (inactive) in experiment [15]; 24.9 µM (inactive) in [16]. The GI50 was 17.5 µM (inactive) in experiment [17]; 18.5 µM (inactive) in experiment [5]; 17.5 µM (inactive) in experiment [6]; 16.1 µM (inactive) in experiment [7]; 17.8 µM (inactive) in experiment [18]; 14.9 µM (inactive) in experiment [8]. Further, the GI50 in [9] is 35.6 µM (inactive); in experiment [10], 25.8 µM (inactive); in [11] it was 22.6 µM; in [12], 20.5 µM (inactive); in experiment [19], 4.99 µM (inactive); in experiment [13] it was 5.5 µM (inactive). For the same molecule, the GI50 in [20] is 35.8 µM (inactive).

`CC(=O)n1nc(-c2[nH]c(C)c(-c3nn(C(C)=O)c(=S)o3)c2C)oc1=S`: the GI50 in [14], in experiment [1], in experiment [2], in experiment [3], in experiment [15] and in experiment [16] was > 100 µM (inactive) throughout. In addition, the GI50 in [17], in experiment [5], in experiment [6], in experiment [7], in experiment [18] and in [8] was > 100 µM (inactive) in each case. Further, the GI50 was > 100 µM (inactive) in experiment [9]; > 100 µM (inactive) in experiment [10]; over 100 µM in [11]; > 100 µM (inactive) in experiment [12]; > 100 µM (inactive) in experiment [19]; > 100 µM (inactive) in experiment [13]. For the same molecule, the GI50 in experiment [20] was > 100 µM (inactive).

Regarding `Cc1cc(C)c(S(=O)(=O)N[C@@H](/C=C(\Br)CO)C(C)C)c(C)c1`, the GI50 is 23.6 µM (inactive) in [14]; 13.2 µM (inactive) in [1]; 30.4 µM (inactive) in [2]; 27 µM (inactive) in experiment [3]; 36.5 µM (inactive) in experiment [15]; 17.2 µM (inactive) in experiment [16]. In addition, the GI50 is 17.3 µM (inactive) in [17]; 30.5 µM (inactive) in experiment [5]; 35.6 µM (inactive) in experiment [6]; 34.5 µM (inactive) in experiment [7]; 24.5 µM (inactive) in experiment [18]; 33.2 µM (inactive) in experiment [8]. Also, the GI50 in experiment [9] is 30.2 µM (inactive); in [10] it was 15.8 µM (inactive); in [11], 37.8 µM; in experiment [12], 56.5 µM (inactive); in experiment [19], 40.3 µM (inactive); in [13], 33.6 µM (inactive). Further, the GI50 in [20] is 20.7 µM (inactive).
